Data set [1] deals with T1, SULT2A8 (Mus musculus, UniProt Q8BGL3).
T1 construct: truncated, residues 4-282 (first three residues removed), N-terminal GST tag cleaved with PreScission protease (pGEX-6P-3); E. coli BL21(DE3), purified from inclusion bodies; homodimer in crystal
T1 sequence (Q8BGL3 4-282): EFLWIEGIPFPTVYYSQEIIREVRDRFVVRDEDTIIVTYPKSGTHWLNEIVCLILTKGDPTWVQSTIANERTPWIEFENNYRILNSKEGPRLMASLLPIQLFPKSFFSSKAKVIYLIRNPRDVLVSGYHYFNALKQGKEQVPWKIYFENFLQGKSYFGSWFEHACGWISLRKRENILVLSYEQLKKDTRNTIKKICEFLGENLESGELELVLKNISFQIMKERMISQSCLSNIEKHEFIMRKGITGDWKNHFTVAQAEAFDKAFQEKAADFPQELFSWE
Put plainly: HPLC of PAP generated. It is filed as biochemical. Conditions: 50 μM PAPS, 100 μM bile acid, 2.5 mM MgCl2, pH 5.5 or 7.5, 37°C.

Data set [2] addresses T1, SULT2A8. Put plainly: thermal shift assay (Thermofluor). It counts as binding. Conditions: 20 mM Hepes pH 8.0, 150 mM NaCl, 4 mM DTT, ligand 250 mM [sic].
The target of data set [3] is T1, SULT2A8. Put plainly: X-ray crystal structure. It is filed as binding. The following applies: pH 5.1.
In data set [4] the target is T2, SULT2A8 (Mus musculus, UniProt Q8BGL3, L99T).
T2 construct: truncated, residues 4-282 (first three residues removed), N-terminal GST tag cleaved with PreScission protease (pGEX-6P-3); E. coli BL21(DE3), purified from inclusion bodies; homodimer in crystal
T2 sequence (Q8BGL3 4-282 L99T): T1 sequence (Q8BGL3 4-282) with L96T
As to the kind of experiment: thermal shift assay (Thermofluor). It counts as binding. Conditions: 20 mM Hepes pH 8.0, 150 mM NaCl, 4 mM DTT; ligand 250 mM [sic]. A general note: DSF heats the sample and reads unfolding from a dye or from intrinsic fluorescence.

Data set [5] addresses T3, SULT2A8 (Mus musculus, UniProt Q8BGL3, N72W).
T3 construct: truncated, residues 4-282 (first three residues removed), N-terminal GST tag cleaved with PreScission protease (pGEX-6P-3); E. coli BL21(DE3), purified from inclusion bodies; homodimer in crystal
T3 sequence (Q8BGL3 4-282 N72W): T1 sequence (Q8BGL3 4-282) with N69W
As to the kind of experiment: thermal shift assay (Thermofluor). It counts as binding. The following applies: 20 mM Hepes pH 8.0, 150 mM NaCl, 4 mM DTT; ligand 250 mM [sic].

In data set [6] the target is T4, SULT2A8 (Mus musculus, UniProt Q8BGL3, L99V).
T4 construct: truncated, residues 4-282 (first three residues removed), N-terminal GST tag cleaved with PreScission protease (pGEX-6P-3); E. coli BL21(DE3), purified from inclusion bodies; homodimer in crystal
T4 sequence (Q8BGL3 4-282 L99V): T1 sequence (Q8BGL3 4-282) with L96V
As to the kind of experiment: thermal shift assay (Thermofluor). It counts as binding. Conditions: 20 mM Hepes pH 8.0, 150 mM NaCl, 4 mM DTT; ligand 250 mM [sic].

Data set [7] concerns the target T5, SULT2A8 (Mus musculus, UniProt Q8BGL3, H48T).
T5 construct: truncated, residues 4-282 (first three residues removed), N-terminal GST tag cleaved with PreScission protease (pGEX-6P-3); E. coli BL21(DE3), purified from inclusion bodies; homodimer in crystal
T5 sequence (Q8BGL3 4-282 H48T): T1 sequence (Q8BGL3 4-282) with H45T
Put plainly: thermal shift assay (Thermofluor). Conditions: 20 mM Hepes pH 8.0, 150 mM NaCl, 4 mM DTT; ligand 250 mM [sic]. It counts as binding.

Data set [8] concerns the molecule itself. Put plainly: crystal structure; SULT2A8 (4-282) cocrystallised with PAP and CA, pH 5.1, 16°C; space group P4(2), two copies per asymmetric unit; dimerization read from analysis of the crystal packing.

Substitutions are numbered along the chain they refer to.

For the molecule `Nc1ncnc2c1ncn2[C@@H]1O[C@H](COP(=O)(O)OS(=O)(=O)O)[C@@H](OP(=O)(O)O)[C@H]1O` [PAPS], the “HPLC of PAP generated” value on SULT2A8 [1] is listed as “quantification of PAP generated from the sulfonation of substrates”.

Turning to `C[C@H](CCC(=O)O)[C@H]1CC[C@H]2[C@@H]3[C@H](O)C[C@@H]4C[C@H](O)CC[C@]4(C)[C@H]3CC[C@]12C` [Na CDC], on SULT2A8 [2], the Tm entry is reported as “Na CDC, or sodium taurochenodeoxycholate) were added”.

For `C[C@H](CCC(=O)NCCS(=O)(=O)O)[C@H]1CC[C@H]2[C@@H]3[C@H](O)C[C@@H]4C[C@H](O)CC[C@]4(C)[C@H]3CC[C@]12C` [Na T-CDC], the Tm entry at SULT2A8 [2] is reported as “Na CDC, or sodium taurochenodeoxycholate) were added”.

In the case of `C[C@H](CCC(=O)O)[C@H]1CC[C@H]2[C@@H]3[C@H](O)C[C@@H]4C[C@H](O)CC[C@]4(C)[C@H]3C[C@H](O)[C@]12C` [CA], at SULT2A8 [3] (co-crystal with PAP, substrate pocket), the “X-ray crystal structure, 2.5 A” value is “SULT2A8 was cocrystallized with PAP and its native substrate CA”.

Consider `C[C@H](CCC(=O)O)[C@H]1CC[C@H]2[C@@H]3[C@H](O)C[C@@H]4C[C@H](O)CC[C@]4(C)[C@H]3C[C@H](O)[C@]12C` [Na C], for which, on SULT2A8 [2] (with PAP), the Tm result was “Tm values were further increased when both PAP and native substrates (Na C, Na T-C”.

For the molecule `Nc1ncnc2c1ncn2[C@@H]1O[C@H](COP(=O)(O)O)[C@@H](OP(=O)(O)O)[C@H]1O` [PAP], the Tm result at SULT2A8 [4] is “Tm values of these mutants were significantly increased when PAP was included”; on SULT2A8 [5] it was “the Tm value of N72W was increased when PAP was added”; at SULT2A8 [2], “from 54 to 61 °C”; at SULT2A8 [6], “Tm values of these mutants were significantly increased when PAP was included”; on SULT2A8 [7] it was “Tm values of these mutants were significantly increased when PAP was included”. Further, the “X-ray crystal structure, 2.5 A” value at SULT2A8 [3] (co-crystal with cholic acid, PAPS binding pocket, cofactor product/analogue) was “SULT2A8 protein was cocrystallized with PAP and CA”.

B1: mouse cytosolic sulfotransferase SULT2A8 (residues 4-282) (enzyme, UniProt Q8BGL3 4-282, looked up)
chain: T1 sequence (Q8BGL3 4-282)
notes: Sulfotransferase 2A8 (SULT2A8), mouse, residues 4-282 (first three N-terminal residues removed), cloned in pGEX-6P-3 from pRSET-SULT2A8; Crystallised with the small molecules PAP and cholic acid; two copies per asymmetric unit; also called mSULT2A8; SULT2A8 WT; source: E. coli BL21(DE3), purified from inclusion bodies (Glutathione Sepharose 4B, PreScission cleavage, Superdex 75); not shown: GST, …
For B1, the binding result in data set [8] is listed as “binds”.

Values taken from publication PMC8134075, “Structure of mouse cytosolic sulfotransferase SULT2A8 provides insight into sulfonation of 7α-hydroxyl bile acids” (Journal of Lipid Research, 2021).
